Patent US20100173983A1, “METHOD FOR INDUCING AUTOPHAGY” (priority 2007, published 2010)

Assays:
[1] = tested on: caspase 8; test: Caspase-Glo 8 assay in R182 cells; assay type: cell-based, Human; settings: R182 ovarian cancer explants; dose response and duration of exposure (5 μg/ml, 0-25 hr)
Description: FIG. 4. Comparative induction of caspase 8 in R182 ovarian cancer explants by Cpd 1 and dehydroequol using either dose response (A) or duration of exposure (B). Caspase 8 activity was assessed using the Caspase-Glo 8 assay.
(§1) For caspase activity assays, 10 μg of protein in 50 μL total volume was mixed with 50 μL of equilibrated Caspase-Glo 3/7, 8, or 9 reagents (Promega). After incubating at room temperature for 1 hour, luminescence was measured using TD 20/20 Luminometer (Turner Designs, Sunnyvale, Calif.). Blank values were subtracted and fold-increase in activity was calculated based on activity measured from untreated cells. Each sample was measured in triplicate.

[2] = tested on: caspase 3; test: Caspase-Glo 3/7 assay in R182 cells; assay type: cell-based, Human; settings: R182 ovarian cancer explants; dose response and duration of exposure (5 μg/ml, 0-25 hr)
Description: FIG. 2. Comparative induction of caspase 3 in R182 ovarian cancer explants by Cpd 1 and dehydroequol using either dose response (A) or duration of exposure (B). Caspase 3 activity was assessed using the Caspase-Glo 3/7 assays.
as §1

[3] = tested on: caspase 3; test: Caspase 3 activity in xenograft tumour sections; assay type: in vivo, SCID mice; settings: tumour-bearing mice; not shown
[4] = tested on: CP70 (cell line), R179, R182, R585 (primary ovarian cancer explants); test: Cell viability, CellTiter 96 Aqueous One Solution Cell Proliferation Assay, ovarian cancer cells; assay type: cell-based, Human; settings: concentrations up to 10 μg/ml, 24 hr exposure
Description: FIG. 1. Comparative cytotoxicity of dehydroequol and Compound I as described herein (Cpd 1) against normal and ovarian cancer cells: CP70 (cell line), R179, R182, R585 (primary ovarian cancer explants) and OSE (normal ovarian surface epithelial cells). […] Both compounds were tested at concentrations up to 10 μg/ml and exposed to cells for 24 hr.
Human EOC cell lines A2780, CP70, and OSE were propagated in RPMI plus 10% fetal bovine serum (FBS) (Gemini Bio-Products, Woodland, Calif.) at 37° C. in a 5% CO2 atmosphere. Primary EOC cells (R179, R182, R585) were isolated from malignant ovarian ascites and cultured as previously described (Kamsteeg et al., 2003). Dehydroequol and Compound 1 (Cpd 1) were obtained from Novogen (Australia). All other reagents were purchased from Sigma Chemical (St. Louis, Mo.). The pan caspase inhibitor Z-VAD-FMK was obtained from R&D Systems (Minneapolis, Minn.).
(§2) Cell viability was evaluated using the CellTiter 96 Aqueous One Solution Cell Proliferation Assay (Promega, Madison, Wis.) according to the manufacturer's instructions. The values from the treated cells were compared with the values generated from the untreated cells and reported as percent viability. Each experiment was performed in triplicate.

[5] = tested on: caspase 9; test: Caspase-Glo 9 assay in R182 cells; assay type: cell-based, Human; settings: R182 ovarian cancer explants; dose response and duration of exposure (5 μg/ml, 0-25 hr)
Description: FIG. 3. Comparative induction of caspase 9 in R182 ovarian cancer explants by Cpd 1 and dehydroequol using either dose response (A) or duration of exposure (B). Caspase 9 activity was assessed using the Caspase-Glo 9 assay.
as §1

[6] = tested on: ovarian cancer cells; test: Cell viability in presence of pan caspase inhibitor ZVAD-FMK; assay type: cell-based, Human; settings: ZVAD-FMK 0.5 μg/ml
Description: FIG. 5. Comparative cell viability plots of dehydroequol (A) and Cpd 1 (B) treated cells in the presence and absence of the pan caspase inhibitor ZVAD-FMK (0.5 μg/ml).
as §2

Oc1ccc(C2=Cc3ccc(O)cc3OC2)cc1 [Dehydroequol, reference compound] was tested. Which “caspase 8 activity” value [1] did it give?
Its value is “activation of caspase 8 is time (5 μg/ml) and dose dependent”.

And the “caspase 3 activity” value [2]?
The value was “activation of caspase 3 is time (5 μg/ml) and dose dependent”.

What about the “caspase 3 activity in tumour sections” value [3] of the same compound?
Its value is “observed only in tumour sections taken from mice dosed with dehydroequol”.

And the “cell viability of ovarian cancer cells” value [4]?
The value was “does not exhibit this pan activity”.

What about the “caspase 9 activity” value [5] of the same compound?
The value was “activation of caspase 3 is time (5 μg/ml) and dose dependent”.

What about the “cell death in the presence of pan caspase inhibitor ZVAD-FMK” value [6] of the same compound?
Its value is “apoptosis was inhibited”.
